{"source": "patent US7947313B2", "about": "“Compositions for diabetes treatment and prophylaxis” (Ayurvedic-Life International, LLC, priority 2003, dated 2011)", "origin": "cited, not measured here", "key": {"[1]": {"conditions": "Fletcher et al. 1999"}, "rat chorda tympani nerve": {"tested_on": "rat chorda tympani nerve", "conditions": "stimuli such as glucose, sucrose, glycine and saccharine; Fletcher et al. 1999"}}, "data": [{"substance": "gurmarin", "values": [{"measurement": "effect in humans", "setting": "[1]", "value": "no apparent effect"}, {"measurement": "response of the rat chorda tympani nerve to sweet taste stimuli", "setting": "rat chorda tympani nerve", "value": "suppressing the response"}]}]}
